ChEMBL document CHEMBL3879901, “Substituted isoquinolin-1(2H)-ones, and methods of use thereof” (2012)

Experiments:
[1] = Antiproliferative activity against Balb/c mouse splenic B cells preincubated for 30 mins followed by LPS or F(ab')2 donkey anti-mouse IgM and recombinant mouse IL4 stimulation measured after 72 hrs by Alamar Blue reduction assay; type: functional, cell-based
[2] = biological target: PI3-kinase p110-delta/p85-alpha (Homo sapiens, UniProt O00329); experiment: Inhibition of N-terminal His6-tagged recombinant full-length human p110delta/untagged recombinant full length p85alpha expressed in baculovirus infected Sf21 cells using phosphatidylinositol as substrate in presence of gamma-32P-ATP after 5 mins by thin layer chromatographic method
[3] = biological target: PI3-kinase p110-alpha/p85-alpha (Homo sapiens, UniProt P42336); experiment: Inhibition of N-terminal His6-tagged recombinant full-length human p110alpha/untagged recombinant full length human p85alpha expressed in baculovirus infected Sf21 cells using phosphatidylinositol as substrate in presence of gamma-32P-ATP after 5 mins by thin layer chromatographic method
PI3K p110 beta/p85 alpha = PI3K p110 beta/p85 alpha (Homo sapiens, UniProt P42338); experiment: Inhibition of N-terminal His6-tagged recombinant full-length human p110beta/untagged recombinant full length p85alpha expressed in baculovirus infected Sf21 cells using phosphatidylinositol as substrate in presence of gamma-32P-ATP after 5 mins by thin layer chromatographic method
Chain of PI3K p110 beta/p85 alpha (P27986 whole entry): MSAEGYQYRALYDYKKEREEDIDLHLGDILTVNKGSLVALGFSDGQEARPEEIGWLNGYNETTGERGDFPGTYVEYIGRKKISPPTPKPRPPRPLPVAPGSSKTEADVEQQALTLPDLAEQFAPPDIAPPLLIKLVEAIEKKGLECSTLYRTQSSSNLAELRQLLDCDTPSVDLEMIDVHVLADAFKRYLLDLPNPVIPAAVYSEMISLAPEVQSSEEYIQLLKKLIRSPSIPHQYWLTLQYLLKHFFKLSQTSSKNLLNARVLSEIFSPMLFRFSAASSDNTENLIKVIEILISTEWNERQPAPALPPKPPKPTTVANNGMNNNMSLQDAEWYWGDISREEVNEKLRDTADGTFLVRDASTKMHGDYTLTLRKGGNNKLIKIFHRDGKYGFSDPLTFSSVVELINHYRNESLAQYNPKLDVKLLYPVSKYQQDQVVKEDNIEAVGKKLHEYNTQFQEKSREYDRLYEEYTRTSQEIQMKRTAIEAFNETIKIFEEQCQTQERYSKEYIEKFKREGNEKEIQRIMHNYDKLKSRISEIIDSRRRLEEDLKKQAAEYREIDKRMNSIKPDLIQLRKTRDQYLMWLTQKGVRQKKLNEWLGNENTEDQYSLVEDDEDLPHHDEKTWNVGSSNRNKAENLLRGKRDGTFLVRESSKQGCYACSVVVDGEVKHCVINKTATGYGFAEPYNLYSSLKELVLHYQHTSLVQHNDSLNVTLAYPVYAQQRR
Chain of PI3K p110 beta/p85 alpha (P42338 whole entry): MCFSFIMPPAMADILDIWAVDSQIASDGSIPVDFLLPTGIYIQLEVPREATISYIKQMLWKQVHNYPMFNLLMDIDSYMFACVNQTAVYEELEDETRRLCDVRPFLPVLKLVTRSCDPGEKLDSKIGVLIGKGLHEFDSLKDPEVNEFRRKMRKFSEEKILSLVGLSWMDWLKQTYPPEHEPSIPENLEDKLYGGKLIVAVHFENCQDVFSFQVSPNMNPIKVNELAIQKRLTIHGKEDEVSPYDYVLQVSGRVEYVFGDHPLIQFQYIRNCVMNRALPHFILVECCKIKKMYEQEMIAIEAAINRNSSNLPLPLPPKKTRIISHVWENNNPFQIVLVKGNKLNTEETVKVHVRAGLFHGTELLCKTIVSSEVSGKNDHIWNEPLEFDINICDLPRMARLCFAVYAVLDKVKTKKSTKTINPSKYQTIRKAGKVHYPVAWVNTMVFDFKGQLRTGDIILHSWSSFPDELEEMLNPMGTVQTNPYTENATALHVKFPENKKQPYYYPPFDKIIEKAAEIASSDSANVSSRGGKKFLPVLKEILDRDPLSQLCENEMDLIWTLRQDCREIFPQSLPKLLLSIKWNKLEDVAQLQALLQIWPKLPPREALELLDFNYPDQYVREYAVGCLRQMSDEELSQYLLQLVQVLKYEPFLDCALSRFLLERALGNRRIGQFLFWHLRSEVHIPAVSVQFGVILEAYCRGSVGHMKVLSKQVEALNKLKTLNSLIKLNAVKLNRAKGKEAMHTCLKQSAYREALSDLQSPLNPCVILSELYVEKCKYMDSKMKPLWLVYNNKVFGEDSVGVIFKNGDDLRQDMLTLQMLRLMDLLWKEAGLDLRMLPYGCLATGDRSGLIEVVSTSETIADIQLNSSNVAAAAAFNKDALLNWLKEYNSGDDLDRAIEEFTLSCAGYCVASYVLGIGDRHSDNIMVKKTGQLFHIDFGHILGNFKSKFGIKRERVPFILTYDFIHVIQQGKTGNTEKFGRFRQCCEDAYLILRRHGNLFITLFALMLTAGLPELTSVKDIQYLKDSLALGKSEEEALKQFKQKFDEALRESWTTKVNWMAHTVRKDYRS

Chain of PI3-kinase p110-alpha/p85-alpha (P27986 whole entry): as the sequence (P27986 whole entry) above
Chain of PI3-kinase p110-alpha/p85-alpha (P42336 whole entry): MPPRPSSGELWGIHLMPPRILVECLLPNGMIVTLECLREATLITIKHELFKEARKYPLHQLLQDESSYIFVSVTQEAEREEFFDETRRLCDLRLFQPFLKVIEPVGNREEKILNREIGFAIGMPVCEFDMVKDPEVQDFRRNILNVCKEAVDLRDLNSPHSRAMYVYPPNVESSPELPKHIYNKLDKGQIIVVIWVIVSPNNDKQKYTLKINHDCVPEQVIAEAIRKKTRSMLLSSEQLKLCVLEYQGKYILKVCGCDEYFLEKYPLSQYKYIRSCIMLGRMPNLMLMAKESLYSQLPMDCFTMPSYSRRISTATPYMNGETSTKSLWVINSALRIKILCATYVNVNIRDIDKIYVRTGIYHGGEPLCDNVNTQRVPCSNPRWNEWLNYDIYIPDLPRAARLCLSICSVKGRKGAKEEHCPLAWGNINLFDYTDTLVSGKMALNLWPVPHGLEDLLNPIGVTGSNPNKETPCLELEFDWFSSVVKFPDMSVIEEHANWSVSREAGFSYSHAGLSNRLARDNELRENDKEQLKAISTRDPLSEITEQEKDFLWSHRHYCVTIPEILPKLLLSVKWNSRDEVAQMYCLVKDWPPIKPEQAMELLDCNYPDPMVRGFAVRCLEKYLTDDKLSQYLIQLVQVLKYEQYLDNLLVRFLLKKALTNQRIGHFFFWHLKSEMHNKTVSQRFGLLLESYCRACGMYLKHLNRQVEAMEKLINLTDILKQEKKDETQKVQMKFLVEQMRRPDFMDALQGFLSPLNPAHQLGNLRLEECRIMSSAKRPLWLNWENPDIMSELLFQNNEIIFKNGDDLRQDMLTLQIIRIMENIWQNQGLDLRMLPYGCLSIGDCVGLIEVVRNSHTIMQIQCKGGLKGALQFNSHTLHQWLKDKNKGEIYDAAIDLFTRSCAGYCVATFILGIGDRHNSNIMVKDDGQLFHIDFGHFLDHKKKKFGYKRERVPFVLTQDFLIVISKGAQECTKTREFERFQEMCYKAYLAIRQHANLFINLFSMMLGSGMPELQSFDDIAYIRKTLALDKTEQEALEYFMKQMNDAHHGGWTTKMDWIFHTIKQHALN
Chain of PI3-kinase p110-delta/p85-alpha (P27986 whole entry): as the sequence (P27986 whole entry) above
Chain of PI3-kinase p110-delta/p85-alpha (O00329 whole entry): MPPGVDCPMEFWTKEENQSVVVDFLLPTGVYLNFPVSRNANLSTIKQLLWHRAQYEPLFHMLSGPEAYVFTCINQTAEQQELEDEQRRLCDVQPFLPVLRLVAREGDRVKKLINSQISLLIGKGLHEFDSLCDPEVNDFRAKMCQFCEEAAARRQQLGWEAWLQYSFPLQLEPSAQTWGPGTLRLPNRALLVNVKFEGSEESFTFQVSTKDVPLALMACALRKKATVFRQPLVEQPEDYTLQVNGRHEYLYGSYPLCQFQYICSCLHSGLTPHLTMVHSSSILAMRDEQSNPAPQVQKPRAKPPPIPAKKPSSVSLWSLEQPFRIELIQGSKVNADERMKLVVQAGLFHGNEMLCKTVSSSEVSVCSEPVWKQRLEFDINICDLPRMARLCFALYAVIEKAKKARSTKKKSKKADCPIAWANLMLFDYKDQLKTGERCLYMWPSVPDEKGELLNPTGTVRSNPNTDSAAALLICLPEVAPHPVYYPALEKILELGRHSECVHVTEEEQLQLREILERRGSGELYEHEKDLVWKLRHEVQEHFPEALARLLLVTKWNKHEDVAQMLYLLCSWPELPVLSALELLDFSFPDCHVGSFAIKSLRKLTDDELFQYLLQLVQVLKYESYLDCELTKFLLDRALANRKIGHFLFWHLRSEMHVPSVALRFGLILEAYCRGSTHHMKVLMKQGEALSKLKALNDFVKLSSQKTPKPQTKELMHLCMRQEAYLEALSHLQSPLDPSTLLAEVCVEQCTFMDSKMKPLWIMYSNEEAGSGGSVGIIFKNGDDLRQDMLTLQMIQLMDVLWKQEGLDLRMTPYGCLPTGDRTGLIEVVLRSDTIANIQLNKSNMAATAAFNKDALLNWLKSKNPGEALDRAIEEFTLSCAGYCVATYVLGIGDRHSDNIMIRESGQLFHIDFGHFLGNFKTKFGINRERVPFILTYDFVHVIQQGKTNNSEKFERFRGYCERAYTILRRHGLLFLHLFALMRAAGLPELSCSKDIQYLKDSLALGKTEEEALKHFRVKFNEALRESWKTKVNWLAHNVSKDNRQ

SMILES | IC50 [2] [nM] | IC50 [3] [nM] | IC50 (PI3K p110 beta/p85 alpha) [nM] | EC50 [1] [nM]
CC(C)n1c(Cn2nc(-c3cccc(O)c3)c3c(N)ncnc32)cc2cccc(F)c2c1=O | – | – | – | < 1000
Cc1cccc2cc([C@H](C)Nc3nc(N)ncc3F)n(-c3ccccc3)c(=O)c12 | < 100 | – | – | –
Cc1cccc2cc(C(C)Nc3ncnc4[nH]cnc34)n(CCN3CCOCC3)c(=O)c12 (centres undefined) | < 100 | – | – | < 100
Cc1cccc2cc(C(C)Nc3ncnc4[nH]cnc34)n(C3CCOCC3)c(=O)c12 (centres undefined) | < 100 | – | – | < 100
Cc1cccc2cc([C@H](C)Nc3ncnc4ccccc34)n(-c3ccccc3)c(=O)c12 | < 100 | – | – | –
Cc1cccc2cc(C(C)Nc3ncnc4[nH]cnc34)n(C(C)C)c(=O)c12 (centres undefined) | < 100 | – | – | < 100
Cc1cccc2cc(C(C)Nc3nc(N)nc4[nH]cnc34)n(-c3ccccc3)c(=O)c12 (centres undefined) | – | – | < 100 | –
CCC(Nc1ncnc2[nH]cnc12)c1cc2cccc(C)c2c(=O)n1-c1cc(F)cc(F)c1 (centres undefined) | < 100 | – | – | < 100
Cc1cccc2cc(C(C)Nc3ncnc4[nH]cnc34)n(C3CC3)c(=O)c12 (centres undefined) | – | – | – | < 100
Cc1cccc2cc([C@H](C)Nc3ncnc4[nH]cnc34)n(-c3ccc(F)cc3)c(=O)c12 | – | – | < 100 | –
Cc1cccc2cc([C@@H](C)Nc3ncnc4[nH]cnc34)n(C3CCC3)c(=O)c12 | – | – | – | < 10000
CCC(Nc1ncnc2[nH]cnc12)c1cc2cccc(C)c2c(=O)n1C(C)C (centres undefined) | < 100 | – | – | < 100
Nc1ncnc2c1c(-c1ccc(Cl)c(O)c1)nn2Cc1cc2cccc(I)c2c(=O)n1C1CCCC1 | – | – | – | < 10000
Cc1cccc2cc([C@@H](C)Nc3ncnc4[nH]cnc34)n(C3CC3)c(=O)c12 | – | – | – | > 10000
CCC(Nc1ncnc2[nH]cnc12)c1cc2ccccc2c(=O)n1-c1ccccc1 (centres undefined) | < 100 | – | – | < 100
COc1ccc(-c2nn(Cc3cc4cccc(C)c4c(=O)n3-c3ccccc3F)c3ncnc(N)c23)cc1 | – | – | – | < 1000
CCC(Nc1ncnc2[nH]cnc12)c1cc2cccc(C)c2c(=O)n1C1CCC1 (centres undefined) | < 100 | – | – | < 1000
CCC(Nc1ncnc2[nH]cnc12)c1cc2cccc(C)c2c(=O)n1C1CCN(C)CC1 (centres undefined) | – | – | – | < 100
Cc1cccc2cc([C@H](C)Nc3nc(F)nc4[nH]cnc34)n(C3CC3)c(=O)c12 | < 100 | – | < 100 | –

SMILES | IC50 [2] [nM] | IC50 [3] [nM] | IC50 (PI3K p110 beta/p85 alpha) [nM] | EC50 [1] [nM]
Cc1cccc2cc([C@H](C)Nc3ncnc4[nH]nc(Cl)c34)n(C3CC3)c(=O)c12 | < 100 | – | – | –
Cc1cccc2cc(C(C)Nc3ncnc4[nH]cnc34)n(-c3c(F)cccc3F)c(=O)c12 (centres undefined) | < 100 | – | – | < 100
Cc1ccccc1-n1c(Cn2nc(C(=O)NO)c3c(N)ncnc32)cc2cccc(C)c2c1=O | – | – | – | < 100
Cc1cccc2cc(C(C)Nc3ncnc4[nH]cnc34)n(-c3ccccc3)c(=O)c12 (centres undefined) | – | – | – | < 100
Cc1cccc2cc(C(C)Nc3ncnc4[nH]cnc34)n(CCN3CCCC3)c(=O)c12 (centres undefined) | < 100 | – | – | < 100
Cc1ccccc1-n1c(Cn2nc(C(N)=O)c3c(N)ncnc32)cc2cccc(C)c2c1=O | – | – | – | < 100
Cc1cccc2cc([C@H](C)Nc3nc(Cl)nc4[nH]cnc34)n(C3CC3)c(=O)c12 | < 100 | – | < 100 | –
CC(Nc1ncnc2[nH]cnc12)c1cc2ccccc2c(=O)n1-c1ccccc1 (centres undefined) | < 100 | – | – | < 100
Cc1cccc2cc(C(C)Nc3ncnc4[nH]cnc34)n(-c3cc(F)cc(F)c3)c(=O)c12 (centres undefined) | < 100 | – | – | < 100
Cc1cccc2cc([C@H](C)Nc3nc(N)ncc3Cl)n(C3CC3)c(=O)c12 | < 100 | – | – | –
Cc1cccc2cc(C(C)Nc3ncnc4[nH]cnc34)n(C3CCC3)c(=O)c12 (centres undefined) | < 100 | – | – | < 100
Nc1ncnc2c1c(I)nn2Cc1cc2cccc(I)c2c(=O)n1C1CCCC1 | – | – | – | < 10000
Cc1cccc2cc([C@H](C)Nc3nc(Cl)ncc3Cl)n(-c3ccccc3)c(=O)c12 | – | – | – | < 100
Cc1cccc2cc(C(C)Nc3ncnc4[nH]cnc34)n(C3CCN(C)CC3)c(=O)c12 (centres undefined) | < 100 | – | – | < 100
Cc1cccc2cc([C@@H](C)Nc3ncnc4[nH]cnc34)n(-c3ccccc3)c(=O)c12 | – | – | – | < 1000
Cc1cccc2cc(C(C)Nc3ncnc4[nH]cnc34)n(-c3cccc(F)c3)c(=O)c12 (centres undefined) | < 100 | – | – | < 100
C[C@H](Nc1ncnc2nc[nH]c12)c1cc2cccc(Cl)c2c(=O)n1-c1ccccc1 [DUVELISIB] | – | – | – | < 100
CC(Nc1ncnc2[nH]cnc12)c1cc2cccc(Cl)c2c(=O)n1-c1ccccc1 (centres undefined) | – | – | – | < 100

Continued, in another order:

IC50 [2] [nM] | IC50 [3] [nM] | IC50 (PI3K p110 beta/p85 alpha) [nM] | SMILES | EC50 [1] [nM]
< 10000 | – | – | Cc1ccccc1-n1c(Cn2nc(-c3ccc(CN)cc3)c3c(N)ncnc32)cc2cccc(C)c2c1=O | –
< 1000 | > 10000 | – | Cc1ccccc1-n1c(Cn2nc(C#C[C@@H](C)O)c3c(N)ncnc32)cc2ccccc2c1=O | < 1000
– | > 10000 | – | Cc1cccnc1-n1c(Cn2nc(I)c3c(N)ncnc32)cc2cccc(C)c2c1=O | < 1000
< 100 | – | – | Nc1ncnc2c1c(-c1cc(O)cc(F)c1)nn2Cc1cc2cccc(F)c2c(=O)n1-c1ccccc1F | < 100
< 100 | < 100000 | – | CNC(=O)Nc1nc2ccc(-c3nn(Cc4cc5cccc(C)c5c(=O)n4-c4ccccc4C)c4ncnc(N)c34)cc2s1 | < 100
< 100 | – | – | Cc1cccc2cc(Cn3nc(-c4cn[nH]c4)c4c(N)ncnc43)n(-c3ccccc3)c(=O)c12 | < 100
< 10000 | – | – | CNC(=O)c1cccc(-c2nn(Cc3cc4cccc(C)c4c(=O)n3-c3ccccc3C)c3ncnc(N)c23)c1 | –
< 100 | – | – | Nc1ncnc2c1c(-c1cccc(O)c1)nn2Cc1cc2cccc(Cl)c2c(=O)n1C1CC1 | < 100
< 100 | – | – | Cc1cccc2cc(Cn3nc(-c4cn[nH]c4)c4c(N)ncnc43)n(-c3ccccc3C(F)(F)F)c(=O)c12 | < 100
< 100 | – | < 10000 | CC(=O)Nc1nc2ccc(-c3nn(Cc4cc5cccc(C)c5c(=O)n4-c4cccc(F)c4)c4ncnc(N)c34)cc2s1 | < 100
< 100 | – | – | Nc1ncnc2c1c(I)nn2Cc1cc2cccc(Cl)c2c(=O)n1C1CC1 | < 100
< 100 | – | – | Cc1ccccc1-n1c(Cn2nc(-c3cc(O)cc(F)c3)c3c(N)ncnc32)cc2ccccc2c1=O | < 100
< 100 | – | – | CCc1nn(Cc2cc3cccc(C)c3c(=O)n2-c2ccccc2)c2ncnc(N)c12 | < 100
< 100 | – | – | CC(C)n1c(Cn2nc(-c3cc(O)cc(F)c3)c3c(N)ncnc32)cc2cccc(Cl)c2c1=O | < 100
< 100 | – | – | Cc1cccc2cc(Cn3nc(-c4cccc(O)c4)c4c(N)ncnc43)n(C)c(=O)c12 | < 1000
< 100 | – | < 10000 | Cc1cccc2cc(C(C)Nc3ncnc4[nH]cnc34)n(-c3ccccc3F)c(=O)c12 (centres undefined) | < 100
< 100 | – | – | CCn1c(Cn2nc(-c3cccc(O)c3)c3c(N)ncnc32)cc2cccc(C)c2c1=O | < 100
< 100 | – | – | Cc1cccc2cc(Cn3nc(C(F)F)c4c(N)ncnc43)n(-c3ccccc3)c(=O)c12 | < 100
< 100 | – | < 10000 | Cc1cccc2cc(Cn3nc(I)c4c(N)ncnc43)n(-c3ccccc3C(C)C)c(=O)c12 | < 100

IC50 [2] [nM] | IC50 [3] [nM] | IC50 (PI3K p110 beta/p85 alpha) [nM] | SMILES | EC50 [1] [nM]
< 100 | – | – | Cc1ccccc1-n1c(Cn2nc(-c3cccc(O)c3)c3c(N)nccc32)cc2cccc(C)c2c1=O | < 1000
< 100 | – | – | CC(C)n1c(Cn2nc(-c3cccc(O)c3)c3c(N)ncnc32)cc2ccccc2c1=O | < 1000
< 100 | – | – | C=Cc1nn(Cc2cc3cccc(C)c3c(=O)n2-c2ccccc2)c2ncnc(N)c12 | < 100
< 100 | – | – | Cc1cccc(C)c1-n1c(CNc2ncnc3[nH]cnc23)cc2cccc(C)c2c1=O | –
< 100 | – | – | CC(C)n1c(Cn2nc(-c3cccc(O)c3)c3c(N)ncnc32)cc2cccc(Cl)c2c1=O | < 100
< 10000 | – | > 10000 | Cc1cccc2cc(Cn3nc(-c4cccc(Cl)c4)c4c(N)ncnc43)n(-c3ccccc3F)c(=O)c12 | > 10000
< 100 | – | – | CCc1nn(Cc2cc3cccc(C)c3c(=O)n2-c2ccccc2C)c2ncnc(N)c12 | < 1000
< 10000 | – | – | CC(C)n1c(Cn2nc(I)c3c(N)ncnc32)cc2cccc(F)c2c1=O | –
< 100 | – | – | C=C(C)c1nn(Cc2cc3cccc(C)c3c(=O)n2-c2ccccc2)c2ncnc(N)c12 | –
< 10000 | – | – | Nc1ncnc2c1c(I)nn2Cc1cc2cccc(F)c2c(=O)n1-c1ccccc1F | –
< 100 | – | – | CC(C)n1c(Cn2nc(-c3cc(O)cc(F)c3)c3c(N)ncnc32)cc2ccccc2c1=O | < 100
< 100 | – | – | CC(C)n1c(Cn2nc(-c3cc(O)cc(F)c3)c3c(N)ncnc32)cc2cccc(F)c2c1=O | < 100
< 100 | – | – | CCC(Nc1ncnc2[nH]cnc12)c1cc2cccc(C)c2c(=O)n1-c1ccccc1C (centres undefined) | < 100
< 1000 | – | – | Nc1ncnc2c1c(-c1cccc(O)c1)nn2Cc1cc2cccc(F)c2c(=O)n1-c1ccccc1F | –
< 100 | – | – | Cc1cccc2cc(Cn3nc(-c4cc(O)cc(F)c4)c4c(N)ncnc43)n(C)c(=O)c12 | < 100
< 100 | – | – | Cc1cccc2cc(Cn3nc(-c4ccc(Cl)c(O)c4)c4c(N)ncnc43)n(C(C)C)c(=O)c12 | < 100
< 100 | – | < 10000 | CCc1ccccc1-n1c(Cn2nc(I)c3c(N)ncnc32)cc2cccc(C)c2c1=O | < 1000
< 100 | – | – | Cc1cccc2cc(Cn3nc(-c4cc(O)cc(F)c4)c4c(N)ncnc43)n(C3CCOCC3)c(=O)c12 | < 100
< 100 | – | – | Cc1ccccc1-n1c(Cn2nc(CC#N)c3c(N)ncnc32)cc2cccc(C)c2c1=O | < 1000
